Consider three compounds from US10835533B2, “1 -((3S,4R)-4-(3-fluorophenyl)-1-(2-methoxyethyl)pyrrolidin-3-yl)-3-(4-methyl-3-(2-methylpyrimidin-5-yl)-1-phenyl-1H-pyrazol-5-yl)urea as a TrkA kinase inhibitor” (Array BioPharma Inc., priority 2014, dated 2020).

Marks after values point to notes of the source that are not given here.

Series [1] is described as follows: Predicted human IV clearance (microsomal CLh/correction factor). The conditions noted are these: for in vivo/in vitro correction factor: pre-clinical mean correction factor for all species tested; for IV clearance (predicted): predicted from human microsomal CLh and mean pre-clinical correction factor. The procedure: In Table 1, the predicted human IV clearance values were calculated from compound concentration-versus-time data in plasma collected from pre-clinical species (mouse, rat, dog and monkey) following 1 mg/kg intravenous (IV) doses. Concentrations of compound in plasma were measured by LC-MS (liquid chromatography-mass spectrometry). AUCinf values (Area under the plasma concentration-time curve for a dosing interval from time 0 extrapolated to infinity) for individual Cp/t curves (concentration of the drug in plasma at any time t) were determined using linear-trapezoidal integration and first order extrapolation from terminal points of the Cp/t curves, and clearance (CL) was calculated using Dose/AUCinf.
The in vivo/in vitro correction factor was then determined by dividing the […]. The arithmetic mean of the pre-clinical correction factors for each compound was used to predict the human IV clearance from the measured human microsomal CLh (CLh/correction factor).

A short description of series [2]: Liver microsomal clearance, dog. The series is classed as in vitro ADME. The conditions noted are these: pH 7.4; Dog liver microsomes; 1 mg/mL; 20 minutes. As for the experimental part:
(§1) The predicted hepatic clearance (CLh) value was calculated by scaling the in vitro half-life (t1/2) for stability of the compound in liver microsomes (1 mg/mL; 20 minutes) using the physical and physiological scaling factors used to predict intrinsic clearance (CLint) and hepatic clearance (CLhep) listed in Table 2 and employed in the following equations: […]
(§2) where D is the amount of cytochrome P450-related protein per mass of liver, W is the average mass of liver present per weight of animal, C is the liver microsomal concentration, and Q is the species-dependent hepatic blood flow.
(§3) A 100 mM potassium phosphate assay buffer solution (KPB) was prepared as follows. Both KH2PO4 and K2HPO4 were dissolved separately in reagent grade water resulting in final concentrations 100 mM. A 75:25 mixture v/v of K2HPO4:KH2PO4 was prepared and the pH of the solution was adjusted to 7.4 using diluted HCl or diluted NaOH solutions. Stock solutions of Compound 1, Compound 2 and Compound 3 were prepared at 10 mM (active compound) in DMSO. The stock solution was diluted immediately before use to 2.5 μM using the KPB solution to create the working standard. All test compounds were completely soluble in DMSO by visual inspection at room temperature. The NADPH-regenerating solution (NRS) was prepared on the day of analysis by diluting one volume of 17 mg/mL NADP^+ with one volume of 78 mg/mL glucose-6-phosphate (both prepared in KPB, pH 7.4) and 7.9 volumes of 20 mM MgCl2. The final concentrations of NADP^+ and glucose-6-phosphate were 1.7 mg/mL and 7.8 mg/mL, respectively. […]
(§4) All calculations were performed using BioAssay Enterprise. The mean peak area ratios were calculated by averaging the peak area ratios (n=2) of Compound 1, Compound 2, Compound 3, and the internal standard for each sample. Percent remaining was calculated by determining the ratio of the peak area ratio at each time point to the peak area ratio of the time-zero samples. The rate of loss of test compound (km) was determined by linear regression of −ln(f(t)) versus time. […] The t1/2 was determined dividing ln(2) by km. […]
On the technique in general: Microsomes from liver hold many membrane-bound enzymes, among them those of drug oxidation.

A short description of series [3]: Liver microsomal clearance, human. Type of series: in vitro ADME. The conditions noted are these: pH 7.4; Human liver microsomes; 1 mg/mL; 20 minutes. As for the experimental part: as §1, §2, §3, §4
The nature of series [4]: Liver microsomal clearance, mouse. Type of series: in vitro ADME. The conditions noted are these: pH 7.4; Mouse liver microsomes; 1 mg/mL; 20 minutes. The procedure: as §1, §2, §3, §4

On to `COCCN1C[C@@H](NC(=O)Nc2c(C)c(-c3cnc(C)nc3)nn2-c2ccccc2)[C@H](c2cccc(F)c2)C1` [Compound 1, 1-((3S,4R)-4-(3-fluorophenyl)-1-(2-methoxyethyl)pyrrolidin-3-yl)-3-(4-methyl-3-(2-methylpyrimidin-5-yl)-1-phenyl-1H-pyrazol-5-yl)urea], for which the “in vivo/in vitro correction factor” value in series [1] is listed as 2.09 ***. Also, the “IV clearance (predicted)” value in series [1] is given as 5 (predicted)** mL/min/kg. The CLhep predicted at 1 μM in series [2] is 1.44 L/h/kg; in series [3], 0.588 L/h/kg; in series [4], 3 L/h/kg.
The corresponding values for `COCCN1C[C@@H](NC(=O)Nc2c(C)c(-c3cnc(C)nc3)nn2-c2ccccc2)[C@H](c2ccc(F)c(F)c2)C1` [Compound 2, 1-((3S,4R)-4-(3,4-difluorophenyl)-1-(2-methoxyethyl)pyrrolidin-3-yl)-3-(4-methyl-3-(2-methylpyrimidin-5-yl)-1-phenyl-1H-pyrazol-5-yl)urea] are 1.32 ***, 12 (predicted)** mL/min/kg, 1.56 L/h/kg, 0.84 L/h/kg and 3.42 L/h/kg.
For the compound `COCCN1C[C@@H](NC(=O)Nc2c(C)c(-c3cnn(C)c3)nn2-c2ccccc2)[C@H](c2ccc(F)cc2)C1` [Compound 3, 1-(1′,4-dimethyl-1-phenyl-1H,1′H-[3,4′-bipyrazol]-5-yl)-3-((3S,4R)-4-(4-fluorophenyl)-1-(2-methoxyethyl)pyrrolidin-3-yl)urea], the “in vivo/in vitro correction factor” value in series [1] is reported as 0.96 ***. Also, the “IV clearance (predicted)” value in series [1] is listed as 10 (predicted)** mL/min/kg. The values for the CLhep predicted at 1 μM in series [2], in series [3] and in series [4] were 1.38 L/h/kg, 0.6 L/h/kg and 3.6 L/h/kg, respectively.
